The results in this text go back to patent publication US8551999B2, “Heterocyclic compound and pharmaceutical composition thereof” (Otsuka Pharmaceutical Co., Ltd., priority 2007, dated 2013).

For the compound `CN(C(=O)c1ccc(C(F)(F)F)cc1F)c1ccc(Oc2ccc3cc(C(=O)N4CCN(Cc5ccc(OCC(F)(F)F)cc5)CC4)n(C)c3c2)nc1.Cl`, the melting point – broadly, the temperature, or range, at which the solid turns liquid – fell in the range of 234.5 to 235.8 °C.

`Cl.Cn1c(C(=O)N2CCN(Cc3ccc(OCC(F)(F)F)cc3)CC2)cc2ccc(Oc3ccc(NC(=O)c4ccc(C(F)(F)F)nc4)cn3)cc21` returned a melting point of 195.4 °C.

Compound `Cl.Cn1c(C(=O)N2CCN(Cc3ccc(OCC(F)(F)F)cc3)CC2)cc2ccc(Oc3ccc(NC(=O)c4ccc(C(F)(F)F)c(F)c4)cn3)cc21` displayed a melting point of 259 to 263.2 °C.

On to `Cl.Cn1c(C(=O)N2CCN(Cc3ccc(OCC(F)(F)F)cc3)CC2)cc2ccc(Oc3ncc(NC(=O)c4ccc(C(F)(F)F)cc4)cn3)cc21`, for which the melting point was in the range of 250.8 to 254.2 °C.

In turn, `Cl.Cn1c(C(=O)N2CCN(Cc3ccc(OCC(F)F)cc3)CC2)cc2ccc(Oc3ncc(NC(=O)c4ccc(C(F)(F)F)cc4)cn3)cc21` had a melting point of 251.4 to 253.5 °C.

On to `CC(C)Oc1ccc(CN2CCN(C(=O)c3cc4ccc(Oc5ncc(NC(=O)c6ccc(C(F)(F)F)cc6)cn5)cc4n3C)CC2)cc1.Cl`, for which the melting point lay within 249.8 to 251 °C.

Regarding `Cl.Cn1c(C(=O)N2CCN(Cc3ccc(OC(F)F)cc3)CC2)cc2ccc(Oc3ncc(NC(=O)c4ccc(C(F)(F)F)cc4)cn3)cc21`, the melting point fell in the range of 247.7 to 249.8 °C.

The compound `Cc1ccc(C(=O)N(C)c2ccc(Oc3ccc4cc(C(=O)N5CCN(Cc6ccc(OCC(F)F)cc6)CC5)n(C)c4c3)nc2)cc1.Cl` displayed a melting point of 207.8 to 209.3 °C.

For `Cc1ccc(C(=O)N(C)c2ccc(Oc3ccc4cc(C(=O)N5CCN(Cc6ccc(OC(C)C)cc6)CC5)n(C)c4c3)nc2)cc1.Cl`, the melting point was in the range of 230.1 to 232 °C.

Compound `CCCOc1ccc(CN2CCN(C(=O)c3cc4ccc(Oc5ccc(N(C)C(=O)c6ccc(C)cc6)cn5)cc4n3C)CC2)cc1.Cl` gave a melting point of 231.2 to 231.8 °C.

Take `CC(C)N(c1ccc(Oc2ccc3cc(C(=O)N4CCN(Cc5ccc(OCC(F)(F)F)cc5)CC4)n(C)c3c2)nc1)S(=O)(=O)c1ccc(Cl)c(Cl)c1.Cl`: the melting point is 232.8 to 235.6 °C.

The compound `CCCOc1ccc(CN2CCN(C(=O)c3cc4ccc(Oc5ccc(N(C)C(=O)c6ccc(OC(F)F)cc6)cn5)cc4n3C)CC2)cc1.Cl` registered a melting point of 226.9 to 229 °C.

`CC(C)Oc1ccc(CN2CCN(C(=O)c3cc4ccc(Oc5ccc(N(C)C(=O)c6ccc(OC(F)F)cc6)cn5)cc4n3C)CC2)cc1.Cl`: the melting point lay within 229.7 to 230.4 °C.

`CN(c1ccc(Oc2ccc3cc(C(=O)N4CCN(Cc5ccc(OCC(F)(F)F)cc5)CC4)n(C)c3c2)nc1)S(C)(=O)=O.Cl` yielded a melting point of 252.7 to 253.6 °C.

`Cl.Cn1c(C(=O)N2CCN(Cc3ccc(OC(F)F)cc3)CC2)cc2ccc(Oc3ccc(NC(=O)c4ccc(OC(F)(F)F)cc4)cn3)cc21` yielded a melting point of 256.2 to 256.5 °C.

As to `CCCCS(=O)(=O)N(C)c1ccc(Oc2ccc3cc(C(=O)N4CCN(Cc5ccc(OCC(F)(F)F)cc5)CC4)n(C)c3c2)nc1.Cl`, the melting point is 253.6 to 254.4 °C.

Regarding `CC(C)S(=O)(=O)N(C)c1ccc(Oc2ccc3cc(C(=O)N4CCN(Cc5ccc(OCC(F)(F)F)cc5)CC4)n(C)c3c2)nc1.Cl`, the melting point fell in the range of 256.5 to 259.8 °C.

On to `CN(c1ccc(Oc2ccc3cc(C(=O)N4CCN(Cc5ccc(OCC(F)(F)F)cc5)CC4)n(C)c3c2)nc1)S(=O)(=O)CC(F)(F)F.Cl`, for which the melting point was 243.4 to 244.4 °C.

For `CN(c1ccc(Oc2ccc3cc(C(=O)N4CCN(Cc5ccc(OCC(F)(F)F)cc5)CC4)[nH]c3c2)nc1)S(=O)(=O)c1ccc(Cl)c(Cl)c1.Cl`, the melting point lay in the range of 225.2 to 229.3 °C.

`Cc1cc(C(=O)Nc2ccc(Oc3ccc4cc(C(=O)N5CCN(Cc6ccc(OCC(F)(F)F)cc6)CC5)n(C)c4c3)nc2)ccc1Cl.Cl` came in with a melting point of 182.9 °C.

`CC(C)CN1CCN(C(=O)c2cc3ccc(Oc4ccc(N(C)C(=O)c5ccc(C(F)(F)F)cc5)cn4)cc3n2C)CC1.Cl` had a melting point of 253.1 to 254.5 °C.

For `CC(C)CN1CCN(C(=O)c2cc3ccc(Oc4ccc(NC(=O)c5ccc(C(F)(F)F)cc5)cn4)cc3n2C)CC1.Cl`, the melting point is 270.2 to 272.2 °C.

As to `Cc1cc(C(F)(F)F)ccc1C(=O)Nc1ccc(Oc2ccc3cc(C(=O)N4CCN(Cc5ccc(OCC(F)(F)F)cc5)CC4)n(C)c3c2)nc1.Cl`, the melting point is 217.4 to 218.3 °C.

In turn, `Cc1cc(C(F)(F)F)ccc1C(=O)Nc1ccc(Oc2ccc3cc(C(=O)N4CCN(Cc5ccc(OC(C)C)cc5)CC4)n(C)c3c2)nc1.Cl` had a melting point of 197.7 to 199.3 °C.

On to `Cc1cc(C(F)(F)F)ccc1C(=O)Nc1ccc(Oc2ccc3cc(C(=O)N4CCN(Cc5ccc6c(c5)OC(F)(F)O6)CC4)n(C)c3c2)nc1.Cl`, for which the melting point lay in the range of 207.9 to 211.5 °C.

For `Cc1cc(C(F)(F)F)ccc1C(=O)Nc1ccc(Oc2ccc3cc(C(=O)N4CCN(Cc5ccc(OC(F)F)cc5)CC4)n(C)c3c2)nc1.Cl`, the melting point was 204.9 to 205.7 °C.

Turning to `CN(C(=O)c1ccc(C(F)(F)F)cc1F)c1ccc(Oc2ccc3cc(C(=O)N4CCN(Cc5ccc(OC(F)F)cc5)CC4)n(C)c3c2)nc1.Cl`, the melting point was 228.7 to 230.4 °C.

`CCCOc1ccc(CN2CCN(C(=O)c3cc4ccc(Oc5ccc(N(C)C(=O)c6ccc(C(F)(F)F)cc6F)cn5)cc4n3C)CC2)cc1.Cl` returned a melting point of 247.1 to 249.2 °C.

For the compound `Cc1ccc(S(=O)(=O)N(C)c2ccc(Oc3ccc4cc(C(=O)N5CCN(Cc6ccc7c(c6)OCO7)CC5)n(C)c4c3)nc2)cc1.Cl`, the melting point was in the range of 242 to 249 °C.

In turn, `Cc1ccc(S(=O)(=O)N(C)c2ccc(Oc3ccc4c(c3)cc(C(=O)N3CCN(Cc5ccc(OCC(F)(F)F)cc5)CC3)n4C)nc2)cc1.Cl` returned a melting point of 239.1 to 239.8 °C.

In turn, `CCCOc1ccc(CN2CCN(C(=O)c3cc4ccc(Oc5ccc(NC(=O)c6ccc(C(F)(F)F)cc6F)cn5)cc4n3C)CC2)cc1.Cl` registered a melting point of 264 to 266.3 °C.

Compound `CC(C)Oc1ccc(CN2CCN(C(=O)c3cc4ccc(Oc5ccc(NC(=O)c6ccc(C(F)(F)F)cc6F)cn5)cc4n3C)CC2)cc1.Cl` returned a melting point of 267.6 to 268.2 °C.

`Cl.Cn1c(C(=O)N2CCN(Cc3ccc(OC(F)F)cc3)CC2)cc2ccc(Oc3ccc(NC(=O)c4ccc(C(F)(F)F)cc4F)cn3)cc21` had a melting point of 265.3 to 265.8 °C.

Compound `Cl.Cn1c(C(=O)N2CCN(Cc3ccc(OC(CF)CF)cc3)CC2)cc2ccc(Oc3ccc(NC(=O)c4ccc(C(F)(F)F)cc4F)cn3)cc21` registered a melting point of 267.3 to 267.7 °C.

`CCN(C(=S)Nc1ccc(Cl)c(Cl)c1)c1ccc(Oc2ccc3c(c2)cc(C(=O)N2CCN(Cc4ccc5c(c4)OCO5)CC2)n3C)nc1.Cl` registered a melting point of 152 to 160 °C.

The compound `CN(C(=O)Nc1ccc(Cl)c(Cl)c1)c1ccc(Oc2ccc3c(c2)cc(C(=O)N2CCN(Cc4ccc5c(c4)OCO5)CC2)n3C)nc1.Cl` displayed a melting point of 240 to 243 °C.

Turning to `CN(c1ccc(Oc2ccc3cc(C(=O)N4CCN(Cc5ccc(OCC(F)(F)F)cc5)CC4)n(C)c3c2)nc1)S(=O)(=O)c1ccc(C(F)(F)F)cc1.Cl`, the melting point was 256.9 to 257.7 °C.

The compound `Cc1ccc(S(=O)(=O)N(C)c2ccc(Oc3ccc4cc(C(=O)N5CCN(Cc6ccc(OCC(F)(F)F)cc6)CC5)n(C)c4c3)nc2)cc1.Cl` returned a melting point of 246.4 to 247.2 °C.

For `CCN(c1ccc(Oc2ccc3cc(C(=O)N4CCN(Cc5ccc(OCC(F)(F)F)cc5)CC4)n(C)c3c2)nc1)S(=O)(=O)c1ccc(Cl)c(Cl)c1.Cl`, the melting point was in the range of 226.9 to 227.2 °C.

`Cc1cc(C)c(S(=O)(=O)Nc2ccc(Oc3ccc4cc(C(=O)N5CCN(Cc6ccc(OCC(F)(F)F)cc6)CC5)n(C)c4c3)nc2)c(C)c1.Cl` came in with a melting point of 191.3 to 192.5 °C.

Take `Br.CN(C(=O)c1ccc(Cl)c(Cl)c1)c1ccc(Oc2ccc3c(c2)cc(C(=O)N2CCN(Cc4ccc5c(c4)OCO5)CC2)n3C)nc1` [Example 6, N-{6-[2-(4-Benzo[1,3]dioxol-5-ylmethylpiperazine-1-carbonyl)-1-methyl-1H-indol-5-yloxy]pyridin-3-yl}-3,4-dichloro-N-methyl-benzamide hydrobromide]: the melting point fell in the range of 222 to 226 °C.

Take `Br.Cn1c(C(=O)N2CCN(Cc3ccc4c(c3)OCO4)CC2)cc2cc(Oc3ccc(NC(=O)c4ccc(Cl)c(Cl)c4)cn3)ccc21` [Example 7, N-{6-[2-(4-Benzo[1,3]dioxol-5-ylmethylpiperazine-1-carbonyl)-1-methyl-1H-indol-5-yloxy]pyridin-3-yl}-3,4-dichlorobenzamide hydrobromide]: the melting point lay in the range of 264 to 269 °C.

The compound `Br.Cn1c(C(=O)N2CCN(Cc3ccc4c(c3)OCO4)CC2)cc2cc(Oc3ccc(NC(=O)c4ccc(C(F)(F)F)cc4)cn3)ccc21` [Example 8, N-{6-[2-(4-Benzo[1,3]dioxol-5-ylmethylpiperazine-1-carbonyl)-1-methyl-1H-indol-5-yloxy]pyridin-3-yl}-4-trifluoromethylbenzamide hydrobromide] came in with a melting point of 240 to 244 °C.

Turning to `Br.Cn1c(C(=O)N2CCN(Cc3ccc4c(c3)OCO4)CC2)cc2cc(Oc3ccc(NC(=O)c4ccc(C(F)(F)F)cc4C(F)(F)F)cn3)ccc21` [Example 9, N-{6-[2-(4-Benzo[1,3]dioxol-5-ylmethylpiperazine-1-carbonyl)-1-methyl-1H-indol-5-yloxy]pyridin-3-yl}-2,4-bistrifluoromethyl-benzamide hydrobromide], the melting point was 258 to 261 °C (dec.).

On to `Br.Cn1c(C(=O)N2CCN(Cc3ccc4c(c3)OCO4)CC2)cc2cc(Oc3ccc(NC(=O)c4ccc(-n5cccc5)cc4)cn3)ccc21` [Example 11, N-{6-[2-(4-Benzo[1,3]dioxol-5-ylmethylpiperazine-1-carbonyl)-1-methyl-1H-indol-5-yloxy]pyridin-3-yl}-4-pyrrol-1-ylbenzamide hydrobromide], for which the melting point was 227 to 232 °C (dec.).

`Br.CN(C(=O)/C=C/c1cc(F)cc(F)c1)c1ccc(Oc2ccc3c(c2)cc(C(=O)N2CCN(Cc4ccc5c(c4)OCO5)CC2)n3C)nc1` [Example 12, (E)-N-{6-[2-(4-Benzo[1,3]dioxol-5-ylmethylpiperazine-1-carbonyl)-1-methyl-1H-indol-5-yloxy]pyridin-3-yl}-3-(3,5-difluorophenyl)-N-methylacrylamide hydrobromide] had a melting point of 176 to 178 °C.
